{
  "source": "patent US20260232817A1",
  "about": "“Activatable Drug Conjugates and Therapeutic Applications Thereof” (California Institute of Technology, priority 2023, published 2026)",
  "key": {"[1]": {"system": "aortic aneurysm cross-sections", "experiment": "Histology and IHC staining of aneurysm cross-sections after MB PDT at AAA induction", "format": "in vivo, mice", "excerpt": "The formation and progression of AAA can be characterized by the degradation of the extracellular matrix (ECM) and the concurrent infiltration of immune cells into the aortic wall. To assess if MB PDT affects the extracellular matrix (ECM) of the aortic aneurysms, cross-sections of the aneurysms of the above mice which have undergone AAA induction and concurrently treated with MB PDT and the respective controls were stained with Verhoeff-Van Gieson (VVG) for elastin, Massons Trichrome for collagen and CD3 antibody for T-cells and CD68 antibody for macrophages for immune cell infiltration (FIG. 2A). […] Similarly, a compensatory effect of collagen expression into the elastin layer was observed (pointed by arrows) after PDT treatment compared to both vehicle-treated positive controls and sham controls. […] To assess if T-cells and macrophage infiltration is modulated in aneurysms upon treatment with MB PDT, the aneurysm cross-sections were stained for CD3 and CD68, markers for T-cells and macrophages, respectively. CD3 and CD68 staining were reduced after MB PDT treatment compared to vehicle treated controls (FIG. 2A). […] To confirm if there is an improvement in elastin degradation, clinical scoring as per an established protocol was performed by blinded investigators. […] To assess if this benefit on elastin degradation and immune cell infiltration was due to any systemic decrease in circulating cytokine levels known to be associated with aneurysm growth, cytokines such as IL-1B, IL-6 and IL-10, serum cytokine levels were measured.\nFresh tissue was fixed in 10% neutral buffered formalin (Azer Scientific, PFNBF-90) for 24 hours before being transferred to 70% EtOH. […] After paraffin embedding, sections were cut at 5 um for staining (AML Laboratories). Sections were then stained with H&E (VWR 95057-844, 95057-848), Van Gieson (Statlab Medical Products, KTVELLT), and Masson's Trichrome (CP Lab Chemicals, TRM-500). For IHC, standard immunohistochemistry procedures for 5 μm-thick aorta sections were used. In brief, after deparaffinization, endogenous peroxidase activity was quenched by placing the slides into 3% hydrogen peroxide (H2O2) for 10 min. Sections were immersed in preheated 10 mM citric acid (VWR., Radnor, PA., USA), pH 6.0, for 30 min and cooled in cold water. Sections were then blocked in 5% goat serum (Vector Laboratories, Burlingame, Calif., USA) for 20 min before being incubated overnight at 4° C. in a solution of rabbit anti-CD3 (0.4 μg/ml; ab5690; Abcam, Cambridge, MA., USA) antibody, rabbit anti-CD31 (ERP1729; 0.4 μg/ml; ab182981; Abcam) antibody, rabbit alpha smooth muscle Actin (SMA; 0.067 μg/ml; ab5694; Abcam), rabbit anti-CD68 (ERP23917; 2.0 μg/ml; ab283667; Abcam), and rabbit anti-Interleukin-1 receptor type 1 (IL1R1; 2.0 μg/ml; PAS-98766; Thermo Fisher, Eugene, OR., USA) in PBS. The next day, the sections were exposed to the biotinylated biotinylated goat-anti-rabbit IgG secondary antibody (15 μg/ml; Vector Laboratories) in PBS for 1 h followed by avidin-biotin complex for 1 h (1:200, ABC; Vector Laboratories). The reactions were visualized with 3,3′-diaminobenzidine (Millipore-Sigma) for 10 min and counterstained with Gill's Haematoxylin (Thermo Scientific) for 30 seconds. Finally, the sections were dehydrated, cleared in xylene and cover slipped. […]\nFor quantification of elastin using Van Gieson, an elastin scoring guide was used. […]"}, "[2]": {"system": "IL-1B, IL-6 and IL-10", "experiment": "Serum cytokine ELISAs after MB PDT", "format": "in vivo, mice", "settings": "MB PDT vs controls", "excerpt": "The formation and progression of AAA can be characterized by the degradation of the extracellular matrix (ECM) and the concurrent infiltration of immune cells into the aortic wall. To assess if MB PDT affects the extracellular matrix (ECM) of the aortic aneurysms, cross-sections of the aneurysms of the above mice which have undergone AAA induction and concurrently treated with MB PDT and the respective controls were stained with Verhoeff-Van Gieson (VVG) for elastin, Massons Trichrome for collagen and CD3 antibody for T-cells and CD68 antibody for macrophages for immune cell infiltration (FIG. 2A). […] Similarly, a compensatory effect of collagen expression into the elastin layer was observed (pointed by arrows) after PDT treatment compared to both vehicle-treated positive controls and sham controls. […] To assess if T-cells and macrophage infiltration is modulated in aneurysms upon treatment with MB PDT, the aneurysm cross-sections were stained for CD3 and CD68, markers for T-cells and macrophages, respectively. CD3 and CD68 staining were reduced after MB PDT treatment compared to vehicle treated controls (FIG. 2A). […] To assess if this benefit on elastin degradation and immune cell infiltration was due to any systemic decrease in circulating cytokine levels known to be associated with aneurysm growth, cytokines such as IL-1B, IL-6 and IL-10, serum cytokine levels were measured. […]"}, "[3]": {"system": "established AAAs", "experiment": "MB PDT on pre-established and progressive aneurysms 21 days after induction surgery", "format": "in vivo, mice", "experimental": "The photosensitizer dye methylene blue (M291-100) was used for photodynamic therapy treatment (MB-PDT). MB-PDT was applied at two time points during the experiment. To test the effect of MB-PDT on AAA formation, MB-PDT was done directly after the PPE saline wash (PODO). To investigate the effect of MB-PDT on AAA growth, Laparotomy and MB-PDT was performed 21 days postoperatively, covering the whole aneurysm (POD21). MB-PDT involves applying 10 ul of 10:1 MB Solution in DPBS (M291-100:21-030-CV) topically to the whole aneurysm, which was carefully dissected from surrounding tissue. Gauze was placed on either side of the aneurysm to absorb excess MB. The aneurysm was then irradiated for 25 min at an irradiance of 30 mW/cm^2 and fluence of 45 J/cm^2 (660 nm LED, Thor M660L4). Throughout the course of irradiation, 5 ul of MB was applied to the aneurysm every 2.5 min to prevent the tissue from drying out. After irradiation, the MB was washed with two changes of sterile saline. For the MB only group, the total amount of MB was applied topically to the aneurysm for five minutes and washed. For the light only group, the aneurysm was irradiated for 25 min, with 5 ul of sterile saline applied every 2.5 min to prevent tissue desiccation. For POD21 positive controls, a laparotomy was performed with no additional treatment.\nAneurysm size was tracked by weekly ultrasound surveillance.\nIn certain instances, AAA often goes undiagnosed or is diagnosed late, thus it is important to know if MB PDT can not only prevent AAA formation but also reduce or arrest progressive aneurysm growth. To evaluate the efficacy of MB PDT to inhibit the progression of AAA, MB PDT was administered to mice with pre-established and progressive aneurysms 21 days after the initial aneurysm induction surgery with elastase. […] Similar to the measurements done in the study of MB PDT upon AAA induction in FIG. 1, the maximum aortic diameters were measured using ultrasound, averaging anterior-posterior (AP) and transverse (TRV) dimensions for accuracy. […]"}, "[4]": {"experiment": "Ex vivo elastase degradation assay with VVG staining", "parameters": "species or system pigs", "settings": "MB PDT 20 min irradiance of 150 mW/cm^2, before recombinant elastase; vs Veh only", "experimental": "Human and porcine aorta were thawed from −80 C to RT. Tissue was then cut into ~1 cm×1 cm squares and briefly rinsed with HBSS. Tissues were then split into two groups: control and PDT. Control tissues were kept in HBSS at RT for one hour, and treated tissues were subjected to 150 mW NIR light for 20 mins in 100 μg/ml methylene blue, with the lumen side facing the light. Then each group was further split into two groups, no elastase and elastase treatment. Treatment involved a 2 hour incubation at 37 C in 10% Porcine Pancreatic Elastase (E1250-25 MG). After treatment all tissues were briefly rinsed, dried on a paper towel, and frozen in OCT. Tissue was sectioned at 10 μm by cryotome for the cross-section and stained using Van Gieson (Statlab KTVELLT). Images were taken at 20× and 100× on a Keyence BZ-X700 Fluorescence Microscope.\nTo assess if MB PDT can protect aortic tissue from elastase-induce extracellular matrix degradation, aortic tissue were procured from pigs and subjected to MB PDT (20 min irradiance of 150 mW/cm^2) or Veh only treatment ex vivo before recombinant elastase treatment. Comparative analysis of the cross-sections of these tissues were sought to ascertain the consistency of PDT's protective effects across different biological species. […]"}, "[5]": {"biological_target": "T1, Recombinant Tropoelastin (Homo sapiens, UniProt P15502)", "T1 sequence (P15502 27-786)": "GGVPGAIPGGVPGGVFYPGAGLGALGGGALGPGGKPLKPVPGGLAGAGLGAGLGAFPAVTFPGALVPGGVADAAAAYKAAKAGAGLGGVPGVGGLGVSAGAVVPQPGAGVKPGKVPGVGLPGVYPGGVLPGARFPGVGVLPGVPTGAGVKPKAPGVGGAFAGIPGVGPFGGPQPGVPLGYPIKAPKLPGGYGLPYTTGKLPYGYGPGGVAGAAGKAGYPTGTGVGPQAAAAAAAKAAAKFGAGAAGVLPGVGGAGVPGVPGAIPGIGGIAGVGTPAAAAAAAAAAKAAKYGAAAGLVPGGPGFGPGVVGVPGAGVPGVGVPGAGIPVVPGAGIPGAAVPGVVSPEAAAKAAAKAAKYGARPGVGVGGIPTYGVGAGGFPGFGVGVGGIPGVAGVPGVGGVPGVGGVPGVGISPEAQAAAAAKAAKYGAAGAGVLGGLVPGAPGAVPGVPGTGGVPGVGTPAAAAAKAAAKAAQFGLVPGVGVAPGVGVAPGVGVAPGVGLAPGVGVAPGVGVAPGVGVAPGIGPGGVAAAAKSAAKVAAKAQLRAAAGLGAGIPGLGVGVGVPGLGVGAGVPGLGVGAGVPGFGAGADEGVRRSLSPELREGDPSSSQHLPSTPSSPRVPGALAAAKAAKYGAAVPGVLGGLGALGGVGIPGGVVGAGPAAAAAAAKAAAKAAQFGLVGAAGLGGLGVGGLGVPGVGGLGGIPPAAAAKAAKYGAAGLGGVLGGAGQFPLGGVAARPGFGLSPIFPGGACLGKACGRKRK", "experiment": "CML levels in recombinant tropoelastin treated with MB PDT", "format": "biochemical", "settings": "MB PDT vs untreated tropoelastin and methylene blue without light"}, "[6]": {"system": "total elastin in porcine tissue", "experiment": "CML modification levels of total elastin in porcine tissue", "settings": "MB PDT vs untreated samples and pentagalloyl glucose; less than glutaraldehyde"}, "[7]": {"experiment": "Tissue rigidity assay (forceps test), healthy mouse aortic tissue ex vivo", "parameters": "species or system mice", "settings": "MB PDT ex vivo", "experimental": "(§1) (FIG. 7A). The stiffness maximized at 120 mins exposure for mouse tissue. […] To assess if this benefit of MB PDT on mechanical strength is true in a pathological setting, MB PDT treatment was done of on mouse aneurysms in vivo and the stiffness was assessed ex vivo (FIG. 7C).\n(§2) Mouse aneurysms and aortic tissue were treated with MB PDT and vehicle in vivo and ex vivo."}, "[8]": {"system": "mouse aneurysms", "experiment": "Tissue rigidity assay, mouse aneurysms treated in vivo, stiffness assessed ex vivo", "settings": "post-MB PDT in vivo vs vehicle treatment controls", "experimental": "as §1, §2"}, "[9]": {"experiment": "Tissue rigidity assay, porcine aorta ex vivo"}, "[10]": {"settings": "after MB PDT vs vehicle treated controls"}},
  "data": [
    {"compound": "CN(C)c1ccc2nc3ccc(N(C)C)cc3[s+]c2c1", "note": "[MB, methylene blue]", "values": [
      {"measurement": "elastin degradation, clinical scoring by blinded investigators", "setting": "[1]; MB PDT treated group", "result": "trend towards improvement"},
      {"measurement": "CD3 staining (T-cells)", "setting": "[1]; [10]", "result": "reduced"},
      {"measurement": "CD68 staining (macrophages)", "setting": "[1]; [10]", "result": "reduced"},
      {"measurement": "elastin degradation (VVG staining)", "setting": "[1]; [10]", "result": "reduction of elastin degradation"},
      {"measurement": "collagen degradation in the adventitia (Massons Trichrome)", "setting": "[1]; after PDT vs vehicle treated controls and sham mice", "result": "less collagen degradation"},
      {"measurement": "serum cytokine levels (IL-1B, IL-6, IL-10)", "setting": "[2]", "result": "No significant differences"},
      {"measurement": "aneurysm diameter on week 9", "setting": "[3]; MB PDT on day 21, vs vehicle treated group", "result": "decrease"},
      {"measurement": "enlargement of established AAAs (weekly ultrasound)", "setting": "[3]; MB PDT on day 21 post-induction, vs vehicle-treated controls", "result": "significantly reduced"},
      {"measurement": "morphological images and micrometric measurements of AAAs", "setting": "[3]; treated vs vehicle", "result": "marked differences"},
      {"measurement": "resistance to elastase-induced ECM degradation (VVG elastin staining)", "setting": "[4]", "result": "significant resistance"},
      {"measurement": "CML levels", "setting": "[5]", "result": "significant increase"},
      {"measurement": "CML modification levels", "setting": "[6]", "result": "significant increase"},
      {"measurement": "light exposure at which stiffness maximized", "setting": "[7]", "result": 120, "unit": "min"},
      {"measurement": "vascular stiffness (forceps test)", "setting": "[7]", "result": "increased with duration of light exposure"},
      {"measurement": "stiffness of the aneurysm", "setting": "[8]", "result": "clear improvement"},
      {"measurement": "stiffness benefit in porcine aorta", "setting": "[9]; MB PDT, exposure requirement higher, visually less striking", "result": "consistent"},
      {"measurement": "degradation on incubation with recombinant elastase", "setting": "[9]; porcine aorta after MB PDT, more resistance at higher light intensity (60 mW versus 120 mW)", "result": "resistant to degradation"}
    ]}
  ]
}
